Columns and labels:
HeLa lysate = assay: Phosphatase activity of HeLa cell lysate (32P-MLC20); format: biochemical, human; conditions: HeLa lysate in 300-fold dilution; 1 µM 32P-MLC20; mean ± SD
Procedure: (§1) Protein phosphatase activity of either skeletal muscle PP1c or PP2Ac (1.9–2.2 nM), or rPP1cα or rPP1cδ (2.71–3.72 nM), or FLAG-MYPT1-PP1c (∼9 nM) was assayed at 30 °C in absence or presence of polyphenol compounds (0.1–100 µM) in 20 mM Tris/HCl (pH 7.4), 0.1% 2-mercaptoethanol (30 µL). The purified phosphatase samples or HeLa lysates in 300-fold dilution (1.8–3.6 µg/ml) in the presence or absence of 2 µM I2 were preincubated with increasing concentration of the polyphenol compounds (0–100 µM) for 10 min then the reaction was started by the addition of 1 µM ^32P-MLC20 and incubated for 10 min. Polyphenol-treated HeLa cells were washed then lysed in 50 mM Tris/HCl (pH 8.0), 150 mM NaCl, 1% (V/V) Triton X-100, 0.15% (w/v) protease inhibitor cocktail. The phosphatase activity was assayed with 1 µM ^32P-MLC20 for 30 s in 3-fold final dilution (0.24–0.43 mg/ml). The reactions were terminated by the addition of 200 µL of 10% trichloroacetic acid and 200 µL of 6 mg/mL BSA solution. The samples were centrifuged for 3 min at 10,000 rpm and the supernatants (370 µL) were transferred into scintillation vials and the radioactivity of the released ^32Pi was determined in Tri-Carb 2800TR scintillation counter.
(§2) The ellagitannins (Figure 1) assayed on the activity of PP1c or PP2Ac in this study are similar to PGG in composition, but they differ structurally in two important aspects: (i) all of them include hexahydroxydiphenoyl unit linked in various positions, except for pedunculagin which includes two of these linkages; (ii) tellimagrandin I, pedunculagin, and praecoxin B have free glycosidic hydroxyls, while GHG has an unmodified hydroxyl at position 3 of the glucopyranose ring. […] Inhibition of the phosphatase activity by ellagitannins in HeLa cell lysate was also assessed. First, we determined the activity of PP1 and PP2A in the lysates using I2 to inhibit PP1, and low concentration of OA (2 nM) to suppress PP2A specifically, in order to determine the contribution of PP1 and PP2A to the phosphatase activity of lysates (Figure 2(E)).
(§3) Figure 2. The effect of ellagitannins on the activity of PP1 and PP2A. Ellagitannins (0.1–100 µM) were preincubated with the phosphatase samples for 10 min and the phosphatase activity was determined in triplicates with 1 µM ^32P-MLC20 substrate as described in “Materials and methods” section. […] The effect of tellimagrandin I on the activity of rPP1cα (^) and rPP1cδ (●) (C), or FLAG-MYPT1-PP1cδ (▼) (D), or on the phosphatase activity of HeLa lysate in the presence of I2 (□) (F). The effect of I2 and OA on the phosphatase activity of HeLa lysate (E). Phosphatase activity in the absence of ellagitannins, I2 or OA was taken as 100%. Data are means ± SD (n = 3–5).

rPP1cδ [1] = target: T1, rPP1cδ (Homo sapiens, UniProt P62140); assay: Protein phosphatase assay, recombinant rPP1cδ; format: biochemical; conditions: purified recombinant hexahistidine-tagged PP1cδ
T1 construct: hexahistidine; made in house
Procedure: as §1, with “The reactions were terminated by the addition of 200 µL of 10% trichloroacetic acid and 200 µL of 6 mg/mL BSA solution.” left out
(§4) Figure 2. […] Ellagitannins (0.1–100 µM) were preincubated with the phosphatase samples for 10 min and the phosphatase activity was determined in triplicates with 1 µM ^32P-MLC20 substrate as described in “Materials and methods” section. […]

rPP1cα [2] = target: T2, rPP1cα (Homo sapiens, UniProt P62136); assay: Protein phosphatase assay, recombinant rPP1cα; format: biochemical; conditions: purified recombinant FLAG-tagged PP1cα
T2 construct: FLAG; made in house
Procedure: as §1, with “The reactions were terminated by the addition of 200 µL of 10% trichloroacetic acid and 200 µL of 6 mg/mL BSA solution.” left out
as §4

rPP1cδ [3] = target: T1, rPP1cδ; assay: Surface plasmon resonance (SPR); format: binding; conditions: rPP1cδ immobilised on CM5 chip; 1:1 interaction model
HeLa cells [4] = assay: HeLa cell viability, Alamar-blue assay; format: cell-based, human; conditions: 24 h incubation, serum free; 0-50 µM tested
Procedure: HeLa cells and tsa201 cells were cultured as recommended by the supplier. Prior to treatments HeLa cells were serum starved in MEM medium supplemented with 2 mM L-glutamine for 17 h. For phosphatase activity assay cells were treated with increasing concentration of polyphenol compounds (1–50 µM) for 1 h. To assess cell viability by Alamar-blue assay serum starved cells were treated with ellagitannins (1–50 µM) for 24 h in serum free MEM medium. The media was exchanged for resazurin (20 µM) containing serum free media and the cells were incubated for 2 h to enhance resorufin formation by the viable cells. The emission of resorufin was measured by a fluorimeter at 620 nm.
Figure 4. Distinct influence of ellagitannins on the survival and phosphatase activity of HeLa cells. The effect of tellimagrandin I and mahtabin A was assayed on the survival (A) and the phosphatase activity (B) of HeLa cells in 0–50 µM concentration range as detailed in Materials and methods. The cell survival and the phosphatase activity in the absence of ellagitannins were taken as 100%. Data represent means ± SD (n = 3). ANOVA *p < .05, **p < .01, ***p < .001, n.s.: not significant.

FLAG-MYPT1-PP1cδ complex = target: T3, FLAG-MYPT1-PP1cδ complex (Homo sapiens, UniProt P62140); assay: Protein phosphatase assay, myosin phosphatase holoenzyme; format: biochemical; conditions: holoenzyme ~9 nM
T3 construct: its associated proteins (such as PP1cδ) were isolated from cell lysates; expressed in transfected cells; host or cells: tsA201 cells
Procedure: as §1, with “The reactions were terminated by the addition of 200 µL of 10% trichloroacetic acid and 200 µL of 6 mg/mL BSA solution.” left out
as §4

[5] = tested on: mouse cortical synaptosomes; assay: KCl induced exocytosis of cortical synaptosomes (FM 2-10 dye); format: cell-based; conditions: 30 mM KCl; FM 2-10 fluorescence; 45 min treatment
Procedure: (§5) Preparation of synaptosomes from murine brain cortex was carried out as described previously. Functional synaptosomes were kept in Krebs buffer (118 mM NaCl, 5 mM KCl, 25 mM NaHCO3, 1 mM MgCl2, 10 mM D-glucose, pH 7.4). After preparation, synaptosomes were treated with either tellimagrandin I or mahtabin A in 1, 10 or 100 µM final concentrations, or with 10 µM tautomycetin (TMC) for 45 min at 30 °C. After the treatments synaptosomes were applied for exocytosis assay or were lysed and the protein lysates were subjected to Western blot. For exocytosis assay an already established protocol[25] was used. FM 2–10 water-soluble styryl dye was incorporated first into the outer leaflet of synaptosome membrane, then into the synaptosomes. Exocytosis was induced by addition of 30 mM KCl to the synaptosomes. The fluorescent intensity of FM 2–10 styryl dye negatively correlated with the extent of synatposomal exocytosis and was measured by Fluoroskan FL (excitation: 488 nm, emission: 540 nm). Western blot of synaptosome proteins was carried out as described previously[24]^,[25].
Figure 5. […] E: Representative Western blot with anti- SNAP-25^pThr138 specific antibody. F: Relative changes in the amount of SNAP-25^pThr138 determined by densitometry of the Western blots normalised on the bands obtained for the loading controls. Data are means ± SD (n = 3). […]

rPP1cα [6] = target: T2, rPP1cα; assay: Microscale thermophoresis (MST); format: binding
Procedure: (§6) Figure 3. […] The changes in either, the intrinsic fluorescence of unlabelled rPP1cα upon binding to tellimagrandin I and PGG, or changes in fluorescent signal from rPP1cα extrinsically labelled with NT647 dye upon binding with EGCG, were determined at a range of concentration of polyphenols, and the fractions bound are presented. Data points are means ± SD (n = 3).

PP1c = assay: Protein phosphatase assay with 32P-MLC20, native PP1c; format: biochemical; conditions: native PP1c from rabbit skeletal muscle; 1 µM 32P-MLC20; 10 min preincubation; mean ± SD
Procedure: as §1, §2, §3

PP2A = assay: Phosphatase activity of HeLa lysate in the presence of I2 (activity due to PP2A); format: biochemical, human; conditions: PP1 suppressed by 2 µM I2; up to the highest concentration applied (100 µM)
Procedure: as §1, with “Polyphenol-treated HeLa cells were washed then lysed in 50 mM Tris/HCl (pH 8.0), 150 mM NaCl, 1% (V/V) Triton X-100, 0.15% (w/v) protease inhibitor cocktail. The phosphatase activity was assayed with 1 µM ^32P-MLC20 for 30 s in 3-fold final dilution (0.24–0.43 mg/ml). The reactions were terminated by the addition of 200 µL of 10% trichloroacetic acid and 200 µL of 6 mg/mL BSA solution.” left out
The ellagitannins (Figure 1) assayed on the activity of PP1c or PP2Ac in this study are similar to PGG in composition, but they differ structurally in two important aspects: (i) all of them include hexahydroxydiphenoyl unit linked in various positions, except for pedunculagin which includes two of these linkages; (ii) tellimagrandin I, pedunculagin, and praecoxin B have free glycosidic hydroxyls, while GHG has an unmodified hydroxyl at position 3 of the glucopyranose ring. […] Inhibition of the phosphatase activity by ellagitannins in HeLa cell lysate was also assessed. […]

HeLa cells [7] = assay: Phosphatase activity of polyphenol-treated HeLa cells; format: cell-based, human; conditions: 1 h incubation; 0-50 µM tested
Procedure: as §1
HeLa cells and tsa201 cells were cultured as recommended by the supplier. […] The emission of resorufin was measured by a fluorimeter at 620 nm. […]

rPP1cα [8] = target: T2, rPP1cα; assay: Isothermal titration calorimetry (ITC); format: binding; conditions: 25 °C
Procedure: Isothermal titration calorimetry (ITC) experiments were carried out at 25 °C by a MicroCal ITC200 instrument. The assay buffer contains 25 mM Tris/HCl (pH 8.0), 100 mM NaCl, and 1 mM DTT. rPP1cα was dialysed in the assay buffer two times for two hours freshly prior to measurements and diluted to 5–10 µM then transferred into the sample cell of the calorimeter. Tellimagrandin I was diluted to 60–100 µM in the assay buffer and measured into the syringe. 18 times 2 µL ligand was then injected into the cell at a stirring rate of 300 rpm. The reference power was 5 µcal/sec and the assay buffer was loaded in the reference cell. The titration data were analysed with MicroCal ITC-Origin software using one sets of site model to obtain binding parameters of ligand-protein interaction.
as §6

SNAP-25^Thr138 = assay: Phosphorylation of SNAP-25 Thr138 in cortical synaptosomes (Western blot); format: cell-based, mouse; conditions: synaptosomes treated 45 min at 30 °C; ellagitannins 1-100 µM, TMC 10 µM
Procedure: as §5
Figure 5. […] E: Representative Western blot with anti- SNAP-25^pThr138 specific antibody. F: Relative changes in the amount of SNAP-25^pThr138 determined by densitometry of the Western blots normalised on the bands obtained for the loading controls. Data are means ± SD (n = 3). ANOVA *p < .05, **p < .01, ***p < .001, n.s.: not significant.

PP2Ac = assay: Protein phosphatase assay with 32P-MLC20, native PP2Ac; format: biochemical; conditions: native PP2Ac from rabbit skeletal muscle; 1 µM 32P-MLC20; 10 min preincubation; mean ± SD
Procedure: as §1, §2, §3

T2 sequence (P62136 whole entry): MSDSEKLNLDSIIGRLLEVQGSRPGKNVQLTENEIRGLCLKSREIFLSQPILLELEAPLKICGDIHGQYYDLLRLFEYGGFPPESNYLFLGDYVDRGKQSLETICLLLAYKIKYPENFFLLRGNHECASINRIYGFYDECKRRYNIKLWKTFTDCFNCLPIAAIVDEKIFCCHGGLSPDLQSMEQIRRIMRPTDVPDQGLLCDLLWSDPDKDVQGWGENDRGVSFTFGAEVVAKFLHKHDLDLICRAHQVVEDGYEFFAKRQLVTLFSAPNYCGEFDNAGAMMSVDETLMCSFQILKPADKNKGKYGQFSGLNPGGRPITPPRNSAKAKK
T1 sequence (P62140 whole entry): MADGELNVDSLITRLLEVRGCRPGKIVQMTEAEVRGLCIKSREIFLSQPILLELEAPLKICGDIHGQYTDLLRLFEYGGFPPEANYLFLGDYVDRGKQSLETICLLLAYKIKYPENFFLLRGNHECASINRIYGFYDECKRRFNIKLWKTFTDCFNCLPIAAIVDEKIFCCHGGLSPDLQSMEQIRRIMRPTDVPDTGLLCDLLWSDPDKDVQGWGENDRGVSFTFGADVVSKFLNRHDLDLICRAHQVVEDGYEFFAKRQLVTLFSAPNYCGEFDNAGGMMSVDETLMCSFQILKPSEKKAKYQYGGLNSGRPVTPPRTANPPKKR
T3 sequence (P62140 2-327 limits assumed): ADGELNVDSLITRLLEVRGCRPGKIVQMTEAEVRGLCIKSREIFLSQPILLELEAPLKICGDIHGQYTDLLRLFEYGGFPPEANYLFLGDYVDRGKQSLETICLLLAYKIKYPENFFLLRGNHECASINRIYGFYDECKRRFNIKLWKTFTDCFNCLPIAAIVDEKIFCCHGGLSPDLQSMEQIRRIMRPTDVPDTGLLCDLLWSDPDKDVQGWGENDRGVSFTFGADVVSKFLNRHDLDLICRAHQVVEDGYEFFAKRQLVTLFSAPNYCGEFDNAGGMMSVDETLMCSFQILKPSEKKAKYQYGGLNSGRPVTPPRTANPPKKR
T3 sequence (O14974 whole entry partner): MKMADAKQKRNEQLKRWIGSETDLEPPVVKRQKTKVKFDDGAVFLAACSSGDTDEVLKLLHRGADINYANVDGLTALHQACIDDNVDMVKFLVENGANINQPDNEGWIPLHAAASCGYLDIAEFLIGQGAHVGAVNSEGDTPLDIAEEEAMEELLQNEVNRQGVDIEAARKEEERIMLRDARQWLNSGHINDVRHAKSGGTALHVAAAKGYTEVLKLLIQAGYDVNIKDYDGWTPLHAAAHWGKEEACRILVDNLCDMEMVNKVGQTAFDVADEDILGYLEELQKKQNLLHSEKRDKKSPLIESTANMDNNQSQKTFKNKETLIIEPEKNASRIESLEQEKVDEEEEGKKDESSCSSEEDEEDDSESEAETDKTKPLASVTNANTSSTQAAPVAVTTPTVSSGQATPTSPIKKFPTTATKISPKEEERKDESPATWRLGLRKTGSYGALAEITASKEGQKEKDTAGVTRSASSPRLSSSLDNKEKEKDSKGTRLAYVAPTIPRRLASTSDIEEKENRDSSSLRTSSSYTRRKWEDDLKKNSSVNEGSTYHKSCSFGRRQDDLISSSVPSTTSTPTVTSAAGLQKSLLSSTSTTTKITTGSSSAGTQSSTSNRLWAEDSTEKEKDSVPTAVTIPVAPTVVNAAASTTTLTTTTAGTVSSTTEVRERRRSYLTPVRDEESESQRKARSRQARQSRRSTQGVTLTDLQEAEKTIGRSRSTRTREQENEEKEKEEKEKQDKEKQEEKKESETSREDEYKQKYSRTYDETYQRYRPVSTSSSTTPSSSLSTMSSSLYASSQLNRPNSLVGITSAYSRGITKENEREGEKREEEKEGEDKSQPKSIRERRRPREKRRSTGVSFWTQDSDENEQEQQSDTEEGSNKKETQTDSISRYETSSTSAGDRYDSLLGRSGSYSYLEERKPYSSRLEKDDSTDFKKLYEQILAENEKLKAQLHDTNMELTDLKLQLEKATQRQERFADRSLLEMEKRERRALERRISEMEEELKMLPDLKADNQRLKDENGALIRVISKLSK

## O=C(O[C@H]1[C@@H]2OC(=O)c3cc(O)c(O)c(O)c3-c3c(cc(O)c(O)c3O)C(=O)OC[C@H]2OC(O)[C@@H]1OC(=O)c1cc(O)c(O)c(O)c1)c1cc(O)c(O)c(O)c1 (stereo partly shown) [tellimagrandin I]
HeLa lysate
  IC50: 4.46 ± 0.95 µM
rPP1cδ [1]
  IC50: 0.13 ± 0.02 µM
rPP1cα [2]
  IC50: 0.23 ± 0.05 µM
rPP1cδ [3]
  Kd: 0.31 µM
HeLa cells [4]
  Effect on viability (survival) of HeLa cells: suppressed the viability of HeLa cells dramatically
FLAG-MYPT1-PP1cδ complex
  IC50: 0.11 ± 0.02 µM
[5]
  Effect on KCl induced synaptosomal exocytosis: without any influence
rPP1cα [6]; unlabelled rPP1cα, intrinsic fluorescence (NT.LabelFree)
  Kd: 1.78 ± 0.59 µM
PP1c
  IC50: 0.2 ± 0.02 µM
PP2A
  Inhibition of phosphatase activity due to PP2A in HeLa lysate: slightly
HeLa cells [7]
  Effect on phosphatase activity of HeLa cells: partially reduced the phosphatase activity
rPP1cα [8]
  Ka (ITC): 4.68 ± 1.02x10^6 M^−1
  S (ITC): 0.0036 kcal/mol/K
rPP1cα [8]; binding stoichiometry
  N (ITC): 1.16 ± 0.03
rPP1cα [8]; one sets of site model
  Kd: 0.23 µM
SNAP-25^Thr138
  Effect on phosphorylation level of SNAP-25^Thr138: had no any effect
PP2Ac
  IC50: 19.5 ± 8.6 µM

## epigallocatechin-3-gallate [EGCG]
rPP1cα [6]; rPP1cα labelled with NT-647 (NT.115)
  Kd: 8.2 ± 4.3 µM

## O=C(O[C@@H]1O[C@@H]2COC(=O)c3cc(O)c(O)c(O)c3-c3c(cc(O)c(O)c3O)C(=O)O[C@H]2[C@H](O)[C@H]1OC(=O)c1cc(O)c(O)c(O)c1)c1cc(O)c(O)c(O)c1 [GHG, 1,2-di-O-galloyl-4,6-(S)-hexahydroxydiphenoyl-β-D-glucose]
HeLa lysate
  IC50: 13 ± 3.3 µM
PP1c
  IC50: 1.41 ± 0.3 µM
PP2Ac
  IC50: > 100 µM

## tautomycetin [TMC, reference compound]
SNAP-25^Thr138
  Effect on phosphorylation level of SNAP-25^Thr138: increased the amount of SNAP-25^pThr138

— PMC6352937, “Inhibition of protein phosphatase-1 and -2A by ellagitannins: structure-inhibitory potency relationships and influences on cellular systems” (Journal of Enzyme Inhibition and Medicinal Chemistry, 2019)
